Molecular target: T1, Cdc7 (BEV coexpressed huCDC7/DBF4) (Homo sapiens, UniProt O00311)
T1 construct: made in house; host or cells: baculovirus expression vector (BEV) system
Experiment: Cdc7 enzyme inhibition assay ([33P]-ATP, biotinylated peptide substrate, FlashPlate)
Type: biochemical
Conditions: Table 1; Ki from IC50 assuming ATP-competitive inhibition, apparent ATP Km 0.7 μM, 1 μM ATP
Procedure: Cdc7 (BEV coexpressed huCDC7/DBF4) is prepared internally. Cdc7 assays are conducted as follows with final concentrations as listed. In 384-well v-bottom polypropylene plates, 6 L compound (2% DMSO), is mixed with 6 µL of Cdc7 (2 μg/mL), and Jerini peptide substrate A-All (biotin-C6linker-TPSDSLIYDDGLS) (2 μM), followed by immediate initiation with 6 L […] (1 μM, 20 mCi/μmol) using a reaction buffer comprising 25 mM HEPES, pH 7.5, 1 mM DTT, 10 mM MgCl2, 100 μM Na3VO4, 0.075 mg/ml Triton X-100. Reactions are quenched after 1 hr by the addition of 90 L stop buffer (50 mM EDTA, 2M NaCl). 85 μL of the stopped reactions are transferred to 384-well streptavidin-coated plates (FlashPlate Plus, Perkin Elmer), incubated 30 minutes at room temperature and washed 3 times with 0.05% Tween-20/PBS using an ELX-405 automated plate washer (BioTek), and counted on a TopCount Scintillation Plate Reader (Packard). IC50 values are determined via non-linear regression fitting of enzyme inhibition data and corresponding Ki values are generated assuming ATP-competitive (equilibrium) inhibition and using the experimentally determined apparent ATP Km of 0.7 μM (as determined using the above assay condition, but varying ATP). Table 1 depicts enzyme inhibition data (Ki) for exemplary compounds. In Table 1, “A” represents a Ki of less than 10 nM, “B” represents a Ki of between 10 nM and 100 nM, and “C” represents a Ki of greater than 100 nM.
Table 2 depicts enzyme inhibition data (Ki) for examples 27-43 using the same assay as example 26. In Table 2, “A” represents a Ki of less than 10 nM, “B” represents a Ki of between 10 nM and 100 nM, and “C” represents a Ki of greater than 100 nM.

T1 sequence (O00311 whole entry): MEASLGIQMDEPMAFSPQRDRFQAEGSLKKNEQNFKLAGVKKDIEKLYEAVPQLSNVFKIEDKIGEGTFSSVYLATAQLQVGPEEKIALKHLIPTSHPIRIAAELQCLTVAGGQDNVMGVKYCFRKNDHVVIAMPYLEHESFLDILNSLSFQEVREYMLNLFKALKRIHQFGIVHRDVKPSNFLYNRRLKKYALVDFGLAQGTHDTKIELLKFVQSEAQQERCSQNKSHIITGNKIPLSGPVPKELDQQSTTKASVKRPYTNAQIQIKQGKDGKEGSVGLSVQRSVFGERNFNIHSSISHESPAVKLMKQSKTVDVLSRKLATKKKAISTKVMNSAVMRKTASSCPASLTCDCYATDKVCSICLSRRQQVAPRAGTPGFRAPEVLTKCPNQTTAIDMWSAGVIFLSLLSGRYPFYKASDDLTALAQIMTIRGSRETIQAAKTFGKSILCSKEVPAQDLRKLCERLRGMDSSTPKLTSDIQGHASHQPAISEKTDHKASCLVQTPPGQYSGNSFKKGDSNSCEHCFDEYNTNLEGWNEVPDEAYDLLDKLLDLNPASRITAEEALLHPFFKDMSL
T1 sequence (Q9UBU7 whole entry partner): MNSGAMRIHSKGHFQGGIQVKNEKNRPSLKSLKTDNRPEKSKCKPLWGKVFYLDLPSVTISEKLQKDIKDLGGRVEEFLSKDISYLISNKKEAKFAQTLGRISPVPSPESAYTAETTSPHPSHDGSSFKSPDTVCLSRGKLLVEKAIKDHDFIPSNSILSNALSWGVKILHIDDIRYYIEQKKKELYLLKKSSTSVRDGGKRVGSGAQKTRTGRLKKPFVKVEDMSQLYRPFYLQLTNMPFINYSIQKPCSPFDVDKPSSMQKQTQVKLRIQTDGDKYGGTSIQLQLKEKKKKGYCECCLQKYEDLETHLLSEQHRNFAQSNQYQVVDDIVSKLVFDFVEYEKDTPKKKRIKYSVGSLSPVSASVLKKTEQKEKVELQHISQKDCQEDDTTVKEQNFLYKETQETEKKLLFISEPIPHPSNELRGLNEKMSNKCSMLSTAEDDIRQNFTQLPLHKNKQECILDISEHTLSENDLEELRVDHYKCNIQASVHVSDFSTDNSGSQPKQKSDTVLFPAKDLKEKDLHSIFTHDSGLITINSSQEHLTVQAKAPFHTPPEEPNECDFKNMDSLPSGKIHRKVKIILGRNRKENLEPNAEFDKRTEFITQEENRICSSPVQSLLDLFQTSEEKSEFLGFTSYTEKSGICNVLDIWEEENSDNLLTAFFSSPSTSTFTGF

Row | Ki [nM] | SMILES
1 | < 10 | CN(C)CC(=O)NC1CCCC(Nc2cc(-c3c[nH]c4nccnc34)cc(Cl)n2)C1 (stereo not shown) [Example 23, N-(3-(6-chloro-4-(5H-pyrrolo[2,3-b]pyrazin-7-yl)pyridin-2-ylamino)cyclohexyl)-2-(dimethylamino)acetamide]
2 | < 10 | O=S(=O)(NC1CCCC(Nc2cc(-c3c[nH]c4nccnc34)cc(Cl)n2)C1)c1ccco1 (stereo not shown) [Example 25, N-(3-(6-chloro-4-(5H-pyrrolo[2,3-b]pyrazin-7-yl)pyridin-2-ylamino)cyclohexyl)furan-2-sulfonamide]

Continued, molecule first:

Row | SMILES | Ki [nM]
3 | O=C1CCC(C(=O)N[C@H]2CC[C@H](Nc3cc(-c4c[nH]c5nccnc45)cc(Cl)n3)CC2)N1 (relative stereo) [Example 20, N-(trans 4-(6-chloro-4-(5H-pyrrolo[3,2-b]pyrazin-7-yl)pyridin-2-ylamino)cyclohexyl)-5-oxopyrrolidine-2-carboxamide] | < 10
4 | Clc1cc(-c2c[nH]c3nccnc23)nc(NC2CCCCC2)n1 [Example 21, 4-chloro-N-cyclohexyl-6-(5H-pyrrolo[3,2-b]pyrazin-7-yl)pyrimidin-2-amine] | > 100
5 | Nc1cc(-c2c[nH]c3nccnc23)cc(Cl)n1 [Example 18, 6-chloro-4-(5H-pyrrolo[2,3-b]pyrazin-7-yl)pyridin-2-amine] | < 10
6 | Clc1cc(-c2c[nH]c3nccnc23)cc(NC2CCCCC2)n1 [Example 1, 6-chloro-N-cyclohexyl-4-(5H-pyrrolo[3,2-b]pyrazin-7-yl)pyridin-2-amine] | < 10
7 | CS(=O)(=O)N1CCCC(CNc2cc(-c3c[nH]c4nccnc34)cc(Cl)n2)C1 (stereo not shown) [Example 10, 6-chloro-N-((1-(methylsulfonyl)piperidin-3-yl)methyl)-4-(5H-pyrrolo[2,3-b]pyrazin-7-yl)pyridin-2-amine] | < 10
8 | CN(C)C1CCCC(Nc2cc(-c3c[nH]c4nccnc34)cc(Cl)n2)C1 (stereo not shown) [Example 12, N^1-(6-chloro-4-(5H-pyrrolo[2,3-b]pyrazin-7-yl)pyridin-2-yl)-N^3,N^3-dimethylcyclohexane-1,3-diamine] | < 10
9 | CCn1cc(-c2cc(Cl)nc(NC3CCCC(NC(=O)CN(C)C)C3)c2)c2nccnc21 (stereo not shown) [Example 24] | > 100
10 | O=C(Nc1cc(-c2c[nH]c3nccnc23)cc(Cl)n1)c1cccnc1 [Example 15, N-(6-chloro-4-(5H-pyrrolo[2,3-b]pyrazin-7-yl)pyridin-2-yl)nicotinamide] | < 10
11 | O=C(Nc1cc(-c2c[nH]c3nccnc23)cc(Cl)n1)C1CCNCC1 [Example 16, N-(6-chloro-4-(5H-pyrrolo[2,3-b]pyrazin-7-yl)pyridin-2-yl)piperidine-4-carboxamide] | < 10
12 | O=C(Nc1cc(-c2c[nH]c3nccnc23)cc(Cl)n1)c1ccccc1 [Example 17, N-(6-chloro-4-(5H-pyrrolo[2,3-b]pyrazin-7-yl)pyridin-2-yl)benzamide] | 10 to 100
13 | CCn1cc(-c2cc(Cl)nc(N[C@H]3CC[C@H](NC(=O)C4CC4)CC3)c2)c2nccnc21 [Example 22] | > 100
14 | CS(=O)(=O)NC1CCCC(Nc2cc(-c3c[nH]c4nccnc34)cc(Cl)n2)C1 (stereo not shown) [Example 13, N-(3-(6-chloro-4-(5H-pyrrolo[2,3-b]pyrazin-7-yl)pyridin-2-ylamino)cyclohexyl)methanesulfonamide] | < 10
15 | O=C(N[C@H]1CC[C@H](Nc2cc(-c3c[nH]c4nccnc34)cc(Cl)n2)CC1)C1CC1 [Example 8, N-(trans-4-(6-chloro-4-(5H-pyrrolo[2,3-b]pyrazin-7-yl)pyridin-2-ylamino)cyclohexyl)cyclopropanecarboxamide] | < 10
16 | Clc1cc(-c2c[nH]c3nccnc23)cc(NC2CCCNC2)n1 (stereo not shown) [Example 3, 6-chloro-N-(piperidin-3-yl)-4-(5H-pyrrolo[2,3-b]pyrazin-7-yl)pyridin-2-amine] | < 10
17 | CS(=O)(=O)N1CCCC(Nc2cc(-c3c[nH]c4nccnc34)cc(Cl)n2)C1 (stereo not shown) [Example 6, 6-chloro-N-(1-(methylsulfonyl)piperidin-3-yl)-4-(5H-pyrrolo[2,3-b]pyrazin-7-yl)pyridin-2-amine] | < 10
18 | O=C(C1CC1)N1CCCC(Nc2cc(-c3c[nH]c4nccnc34)cc(Cl)n2)C1 (stereo not shown) [Example 5, (3-(6-chloro-4-(5H-pyrrolo[2,3-b]pyrazin-7-yl)pyridin-2-ylamino)piperidin-1-yl)(cyclopropyl)methanone] | < 10
19 | O[C@H]1CC[C@H](Nc2cc(-c3c[nH]c4nccnc34)cc(Cl)n2)CC1 [Example 2, Trans 4-(6-chloro-4-(5H-pyrrolo[3,2-b]pyrazin-7-yl)pyridin-2-ylamino)cyclohexanol] | < 10

Same assay, conditions: Table 2; same assay as example 26

Row | Ki [nM] | SMILES
20 | < 10 | Clc1cc(-c2c[nH]c3ncc(/C=C/c4ccncc4)nc23)cc(NC2CCCCC2)n1 [Example 43, 6-chloro-N-cyclohexyl-4-{2-[(E)-2-(pyridin-4-yl)ethenyl]-5H-pyrrolo[2,3-b]pyrazin-7-yl}pyridin-2-amine]
21 | 10 to 100 | Clc1cc(-c2c[nH]c3ncc(Nc4ccccc4)nc23)cc(NC2CCCCC2)n1 [Example 39, 7-[2-chloro-6-(cyclohexylamino)pyridin-4-yl]-N-phenyl-5H-pyrrolo[2,3-b]pyrazin-2-amine]
22 | < 10 | O[C@H]1CC[C@H](Nc2cc(-c3c[nH]c4ncc(Br)nc34)cc(Cl)n2)CC1 [Example 34, trans 4-{[4-(2-bromo-5H-pyrrolo[2,3-b]pyrazin-7-yl)-6-chloropyridin-2-yl]amino}cyclohexanol]
23 | < 10 | O[C@H]1CC[C@H](Nc2cc(-c3c[nH]c4ncc(Cl)nc34)cc(Cl)n2)CC1 [Example 33, trans 4-{[6-chloro-4-(2-chloro-5H-pyrrolo[2,3-b]pyrazin-7-yl)pyridin-2-yl]amino}cyclohexanol]
24 | < 10 | CCN1CCC(C(=O)N[C@H]2CC[C@H](Nc3cc(-c4c[nH]c5nccnc45)cc(Cl)n3)CC2)C1 (relative stereo) [Example 29, N-(trans-4-{[6-chloro-4-(5H-pyrrolo[2,3-b]pyrazin-7-yl)pyridin-2-yl]amino}cyclohexyl)-1-ethylpyrrolidine-3-carboxamide]
25 | < 10 | C[C@@H](C(=O)N[C@H]1CC[C@H](Nc2cc(-c3c[nH]c4nccnc34)cc(Cl)n2)CC1)N(C)C (relative stereo) [Example 32, N-(trans-4-{[6-chloro-4-(5H-pyrrolo[2,3-b]pyrazin-7-yl)pyridin-2-yl]amino}cyclohexyl)-N^2,N^2-dimethylalaninamide]
26 | < 10 | Clc1cc(-c2c[nH]c3ncc(-c4cnccn4)nc23)cc(NC2CCCCC2)n1 [Example 41, 6-chloro-N-cyclohexyl-4-[2-(pyrazin-2-yl)-5H-pyrrolo[2,3-b]pyrazin-7-yl]pyridin-2-amine]
27 | < 10 | N#Cc1cnc2[nH]cc(-c3cc(Cl)nc(NC4CCCCC4)c3)c2n1 [Example 37, 7-[2-chloro-6-(cyclohexylamino)pyridin-4-yl]-5H-pyrrolo[2,3-b]pyrazine-2-carbonitrile]
28 | < 10 | O=C(N[C@H]1CC[C@H](Nc2cc(-c3c[nH]c4nccnc34)cc(Cl)n2)CC1)[C@@H]1CCN1 [Example 30, (2S)—N-(trans-4-{[6-chloro-4-(5H-pyrrolo[2,3-b]pyrazin-7-yl)pyridin-2-yl]amino}cyclohexyl)azetidine-2-carboxamide]
29 | < 10 | CN1CCCC(CNc2cc(-c3c[nH]c4nccnc34)cc(Cl)n2)C1 (stereo not shown) [Example 28, 6-chloro-N-[(1-methylpiperidin-3-yl)methyl]-4-(5H-pyrrolo[2,3-b]pyrazin-7-yl)pyridin-2-amine]
30 | < 10 | CN1CCCC(Nc2cc(-c3c[nH]c4nccnc34)cc(Cl)n2)C1 (stereo not shown) [Example 27, 6-chloro-N-(1-methylpiperidin-3-yl)-4-(5H-pyrrolo[2,3-b]pyrazin-7-yl)pyridin-2-amine]
31 | < 10 | COc1cc(N2CCC(N3CCN(C)CC3)CC2)ccc1Nc1cnc2[nH]cc(-c3cc(Cl)nc(NC4CCCCC4)c3)c2n1 [Example 42, 7-[2-chloro-6-(cyclohexylamino)pyridin-4-yl]-N-{2-methoxy-4-[4-(4-methylpiperazin-1-yl)piperidin-1-yl]phenyl}-5H-pyrrolo[2,3-b]pyrazin-2-amine]
32 | < 10 | O=C1CC(C(=O)N[C@H]2CC[C@H](Nc3cc(-c4c[nH]c5nccnc45)cc(Cl)n3)CC2)CC(=O)N1 [Example 31, N-(trans-4-{[6-chloro-4-(5H-pyrrolo[2,3-b]pyrazin-7-yl)pyridin-2-yl]amino}cyclohexyl)-2,6-dioxopiperidine-4-carboxamide]
33 | 10 to 100 | Clc1cc(-c2c[nH]c3ncc(-c4ccccc4)nc23)cc(NC2CCCCC2)n1 [Example 38, 6-chloro-N-cyclohexyl-4-(2-phenyl-5H-pyrrolo[2,3-b]pyrazin-7-yl)pyridin-2-amine]
34 | < 10 | Clc1cc(-c2c[nH]c3ncc(Cl)nc23)cc(NC2CCCCC2)n1 [Example 35, 6-chloro-4-(2-chloro-5H-pyrrolo[2,3-b]pyrazin-7-yl)-N-cyclohexylpyridin-2-amine]

Source: patent publication US8383624B2 (Abbott Laboratories, priority 2009, dated 2013)
